Measured values published in patent US20040266732A1, “Therapeutic agents, methods, and treatments” (priority 2002, published 2004).

What was measured:
Assay in all cases: NCI 60 cell-line test
Format in all cases: cell-based, human
MALME-3M = MALME-3M (Melanoma)
Procedure: (§1) Methodology: The NCI conducted a test of the MT103 drug against 60 human cell lines, with a minimum of five concentrations of MT103 at 10-fold dilutions. A 48 hour continuous drug exposure was used, and a sulforhodamine B (SRB) protein assay was used to estimate cell viability and growth. The human tumor cell lines of the cancer screening panel were grown in RPMI 1640 medium containing 5% fetal bovine serum and 2 mM L-glutamine. Cells were inoculated into 96 well microtiter plates in 100 μL at plating densities ranging from 5,000 to 40,000 cells/well depending on the doubling time of individual cell lines. After cell inoculation, the microtiter plates are incubated at 37° C., 5% CO2, 95% air, and 100% relative humidity for 24 h prior to addition of experimental drugs.
(§2) After 24 h, two plates of each cell line were fixed in situ with TCA, to represent a measurement of the cell population for each cell line at the time of drug addition (Tz). MT103 was solubilized in dimethyl sulfoxide at 400-fold the desired final maximum test concentration and stored frozen prior to use. At the time of drug addition, an aliquot of frozen concentrate was thawed and diluted to twice the desired final maximum test concentration with complete medium containing 50 μg/ml gentamicin. Additional four, 10-fold or ½ log serial dilutions were made to provide a total of five drug concentrations plus control. Aliquots of 100 μl of these different drug dilutions were added to the appropriate microtiter wells already containing 100 μl of medium, resulting in the required final drug concentrations.
(§3) Following drug addition, the plates were incubated for an additional 48 h at 37° C., 5% CO2, 95% air, and 100% relative humidity. For adherent cells, the assay was terminated by the addition of cold TCA. Cells were fixed in situ by the gentle addition of 50 μl of cold 50% (w/v) TCA (final concentration, 10% TCA) and incubated for 60 minutes at 4° C. The supernatant was discarded, and the plates were washed five times with tap water and air dried. Sulforhodamine B (SRB) solution (100 μl) at 0.4% (w/v) in 1% acetic acid was added to each well, and plates were incubated for 10 minutes at room temperature. After staining, unbound dye was removed by washing five times with 1% acetic acid and the plates were air-dried. Bound stain was subsequently solubilized with 10 mM trizma base, and the absorbance was read on an automated plate reader at a wavelength of 515 nm. For suspension cells, the methodology was the same except that the assay was terminated by fixing settled cells at the bottom of the wells by gently adding 50 μl of 80% TCA (final concentration, 16% TCA). Using the seven absorbance measurements (time zero, (Tz), control growth, (C), and test growth in the presence of drug at the five concentration levels (Ti)), the percentage growth was calculated at each of the drug concentrations levels. Percentage growth inhibition was calculated as:
(§4) [(Ti-Tz)/(C-Tz)]×100 for concentrations for which Ti>/=Tz
(§5) [(Ti-Tz)/Tz]×100 for concentrations for which Ti<Tz.
(§6) Three dose response parameters were calculated for each experimental agent. Growth inhibition of 50% (GI50) was calculated from [(Ti-Tz)/(C-Tz)]×100=50, which is the drug concentration resulting in a 50% reduction in the net protein increase (as measured by SRB staining) in control cells during the drug incubation. The drug concentration resulting in total growth inhibition (TGI) was calculated from Ti=Tz. The LC50 (concentration of drug resulting in a 50% reduction in the measured protein at the end of the drug treatment as compared to that at the beginning) indicating a net loss of cells following treatment was calculated from [(Ti-Tz)/Tz]×100=−50. Values were calculated for each of these three parameters if the level of activity is reached; however, if the effect was not reached or was exceeded, the value for that parameter was expressed as greater or less than the maximum or minimum concentration tested.

NCI-H522 = NCI-H522 (Non-Small Cell Lung Cancer)
Procedure: as §1, §2, §3, §4, §5, §6

HS 578T = HS 578T (Breast Cancer)
Procedure: as §1, §2, §3, §4, §5, §6

UACC-62 = UACC-62 (Melanoma)
Procedure: as §1, §2, §3, §4, §5, §6

MDA-MB-435 = MDA-MB-435 (Breast Cancer)
Procedure: as §1, §2, §3, §4, §5, §6

HCT-116 = HCT-116 (Colon Cancer)
Procedure: as §1, §2, §3, §4, §5, §6

CCRF-CEM = CCRF-CEM (Leukemia)
Procedure: as §1, §2, §3, §4, §5, §6

SK-MEL-5 = SK-MEL-5 (Melanoma)
Procedure: as §1, §2, §3, §4, §5, §6

KM12 = KM12 (Colon Cancer)
Procedure: as §1, §2, §3, §4, §5, §6

BT-549 = BT-549 (Breast Cancer)
Procedure: as §1, §2, §3, §4, §5, §6

TK-10 = TK-10 (Renal Cancer)
Procedure: as §1, §2, §3, §4, §5, §6

SF-295 = SF-295 (CNS Cancer)
Procedure: as §1, §2, §3, §4, §5, §6

M14 = M14 (Melanoma)
Procedure: as §1, §2, §3, §4, §5, §6

MOLT-4 = MOLT-4 (Leukemia)
Procedure: as §1, §2, §3, §4, §5, §6

OVCAR-8 = OVCAR-8 (Ovarian Cancer)
Procedure: as §1, §2, §3, §4, §5, §6

[1] = read-out: LC50 (the source's name)

Structure (SMILES): CC1(C)C2CC[C@@]1(CS(=O)(=O)N(C1CCCCC1)C1CCCCC1)C(O)C2 (stereo partly drawn) [MT103]
- TGI (MALME-3M): 4.44E−05
- IC50 (MALME-3M; read-out: G150): 13.1 µM
- CC50 (MALME-3M; [1]): > 100 µM
- TGI (NCI-H522): 5.50E−05
- IC50 (NCI-H522; read-out: G150): 21.5 µM
- CC50 (NCI-H522; [1]): > 100 µM
- TGI (HS 578T): >1.00E−04
- IC50 (HS 578T; read-out: G150): 29 µM
- CC50 (HS 578T; [1]): > 100 µM
- TGI (UACC-62): 4.65E−05
- IC50 (UACC-62; read-out: G150): 18.8 µM
- CC50 (UACC-62; [1]): > 100 µM
- TGI (MDA-MB-435): 9.88E−05
- IC50 (MDA-MB-435; read-out: G150): 28.4 µM
- CC50 (MDA-MB-435; [1]): > 100 µM
- TGI (HCT-116): >1.00E−04
- IC50 (HCT-116; read-out: G150): 43.8 µM
- CC50 (HCT-116; [1]): > 100 µM
- TGI (CCRF-CEM): >1.00E−04
- IC50 (CCRF-CEM; read-out: G150): 29.7 µM
- CC50 (CCRF-CEM; [1]): > 100 µM
- TGI (SK-MEL-5): 3.61E−05
- IC50 (SK-MEL-5; read-out: G150): 16.8 µM
- CC50 (SK-MEL-5; [1]): 77.7 µM
- TGI (KM12): 9.73E−05
- IC50 (KM12; read-out: G150): 28.4 µM
- CC50 (KM12; [1]): > 100 µM
- TGI (BT-549): >1.00E−04
- IC50 (BT-549; read-out: G150): 59.3 µM
- CC50 (BT-549; [1]): > 100 µM
- TGI (TK-10): 9.02E−05
- IC50 (TK-10; read-out: G150): 21.6 µM
- CC50 (TK-10; [1]): > 100 µM
- TGI (SF-295): >1.00E−04
- IC50 (SF-295; read-out: G150): 22.6 µM
- CC50 (SF-295; [1]): > 100 µM
- TGI (M14): >1.00E−04
- IC50 (M14; read-out: G150): 67.8 µM
- CC50 (M14; [1]): > 100 µM
- TGI (MOLT-4): >1.00E−04
- IC50 (MOLT-4; read-out: G150): 20.6 µM
- CC50 (MOLT-4; [1]): > 100 µM
- TGI (OVCAR-8): >1.00E−04
- IC50 (OVCAR-8; read-out: G150): 25.3 µM
- CC50 (OVCAR-8; [1]): > 100 µM
